Source: PubChem BioAssay (NCI)
“And” between values parts separate entries of the source, which are not always exact repeats. Equal entries are not always repeated.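 Cells were grown in 96-well plates and exposed to each compound for 48 hours at five concentrations; endpoints were interpolated linearly between bracketing concentrations, or set to the highest concentration if not reached. The concentration for 50% growth inhibition is given as GI50. TGI is the concentration that stops growth completely.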

How the values were obtained:
Assay in all cases: NCI-60 cell line screen, 48 h
[1] = system: SF-295 CNS
[2] = system: BT-549 breast
[3] = system: MDA-MB-231 breast
[4] = system: TK-10 renal
[5] = system: OVCAR-3 ovarian
[6] = system: HOP-92 NSCLC
[7] = system: NCI/ADR-RES ovarian
[8] = system: IGROV1 ovarian
[9] = system: KM12 colon
[10] = system: HOP-62 NSCLC

Compound	GI50 [1]	GI50 [2]	TGI [2]	GI50 [3]	TGI [3]	GI50 [4]	TGI [4]	GI50 [5]	TGI [5]	GI50 [6]	TGI [6]	GI50 [7]	TGI [7]	GI50 [8]	TGI [8]	GI50 [9]	TGI [9]	GI50 [10]	TGI [10]	TGI [1]
O=C(CCCCCCCn1cc(-c2cccnc2)nn1)Nc1ccccc1-c1ccccc1	0.403 µM	1.44 µM	25.6 µM	21.3 µM	> 100 µM	17.4 µM	> 100 µM	5.72 µM	> 100 µM	31.8 µM	> 100 µM	0.0688 µM	27.4 µM	0.272 µM	> 100 µM	0.607 µM	24.2 µM	26.2 µM	> 100 µM	–
Cc1cccc(-c2nn3c(c2-c2ccnc4ccc(C(N)=O)cc24)CCC3)n1	> 100 µM	> 100 µM	> 100 µM	> 100 µM	> 100 µM	> 100 µM	> 100 µM	> 100 µM	> 100 µM	> 100 µM	> 100 µM	> 100 µM	> 100 µM	> 92.3 µM	> 100 µM	> 100 µM	> 100 µM	> 100 µM	> 100 µM	> 100 µM
CCc1c2c(nc3cc4c(c(N)c13)OCO4)-c1cc3c(c(=O)n1C2)COC(=O)[C@]3(O)CC	< 0.001 µM	< 0.001 µM	4.39 µM	0.0246 µM and 0.0488 µM	> 100 µM	3.03 µM and 0.483 µM	6.25 µM	0.278 µM and 0.264 µM	> 100 µM	0.00602 µM	0.562 µM and 0.992 µM	–	56.7 µM	0.161 µM and 0.128 µM	–	0.133 µM and 0.0578 µM	1.66 µM	< 0.001 µM	–	–
COc1cccc(Cn2c(-c3nonc3N)nc3ccccc32)c1	0.307 µM	0.365 µM	68.5 µM	0.879 µM	> 100 µM	0.728 µM	52.4 µM	0.354 µM	3.62 µM	0.344 µM	16.4 µM	0.396 µM	–	0.624 µM	> 75.6 µM	0.515 µM	> 100 µM	0.511 µM	48.3 µM	–
C=CC(=O)N1C/C(=C\c2ccccc2)C(=O)/C(=C/c2ccccc2)C1	–	–	4.24 µM	–	4.55 µM	–	7 µM	–	4.47 µM	–	8.64 µM	–	> 27.1 µM	–	4.2 µM	0.443 µM	2.4 µM	–	6.28 µM	5.07 µM
CN1CCC(CNc2ccc3ncc(-c4cccc(OC(F)(F)F)c4)n3n2)CC1	1.67 µM and 1.55 µM	2.45 µM and 4.35 µM	10.9 µM and > 10 µM	1.62 µM and 1.26 µM	3.65 µM and 2.77 µM	2.36 µM and 2.16 µM	8.52 µM and > 10 µM	1.7 µM and 2.15 µM	3.79 µM and > 10 µM	1.2 µM and 0.383 µM	3.81 µM and 3.66 µM	2.84 µM and 5.26 µM	10.5 µM and > 10 µM	2.91 µM and 2.27 µM	9.09 µM and 9.11 µM	0.331 µM and 0.427 µM	1.78 µM and > 10 µM	1.84 µM and 3.44 µM	4.25 µM and > 10 µM	3.48 µM and 3.87 µM
COc1ccc(-c2nsc3c2NC(=O)CC3c2ccc(F)cc2)cc1 (centres undefined)	4.08 µM	7.72 µM	> 100 µM	6.68 µM	> 100 µM	6.88 µM	> 100 µM	3.79 µM	> 100 µM	1.77 µM	23.7 µM	2.57 µM	> 26.9 µM	5.44 µM	> 100 µM	3.13 µM	> 100 µM	7.06 µM	49 µM	> 29.1 µM
CC(C)CC1C(=O)N2CCC[C@H]2C2(O)O[C@](NC(=O)C3C=C4c5cccc6[nH]c(Br)c(c56)C[C@H]4N(C)C3)(C(C)C)C(=O)N12 (some centres undefined)	5.3 µM	11.7 µM	> 100 µM	–	> 100 µM	5.06 µM	> 100 µM	6.7 µM	> 100 µM	1.91 µM	> 100 µM	8.29 µM	> 100 µM	6.79 µM	> 100 µM	6.23 µM	> 100 µM	–	> 100 µM	> 100 µM
Cc1cc(C(=O)Nc2nc3cccc(Cl)c3n2[C@@H]2CCCCN(C(=O)/C=C/CN(C)C)C2)ccn1	13.9 µM	7.26 µM	20.9 µM	13 µM	28.1 µM	1.07 µM	16.4 µM	4.08 µM	18.4 µM	6.94 µM	32.2 µM	5.37 µM	49 µM	0.634 µM	15.1 µM	9.43 µM	25.6 µM	12.5 µM	27.4 µM	28.6 µM
C/C1=C/C(=O)O[C@@H]2C[C@@H](CC[C@H](C)/C=C\C=C\CC1)O[C@@](O)([C@@H]1CSC(=O)N1CO)C2	0.0414 µM	0.0592 µM	20 µM	0.0634 µM	> 60.4 µM	0.0921 µM	0.341 µM	0.122 µM	0.512 µM	0.0165 µM	0.0614 µM	1.2 µM	46.1 µM	0.0251 µM	0.0928 µM	4.96 µM	24.3 µM	0.0254 µM	0.176 µM	20.5 µM
C=C(C)[C@@H]1CC[C@]2(C(N)=O)CC[C@]3(C)[C@H](CC[C@@H]4[C@@]5(C)CC[C@H](O)C(C)(C)[C@@H]5CC[C@]43C)[C@@H]12	3.39 µM	3.99 µM	19.7 µM	1.97 µM	4.6 µM	2.79 µM	7.59 µM	2.07 µM	4.18 µM	2.69 µM	8.86 µM	3.17 µM	12.5 µM	3.32 µM	14.5 µM	3.2 µM	11.9 µM	3.21 µM	12.8 µM	24.8 µM
COC(=O)[C@H]1C(=O)[C@@]2(C)[C@H]([C@H](OC(=O)c3ccccc3)[C@]3(O)C[C@H](OC(=O)[C@H](O)[C@@H](NC(=O)c4ccc(F)cc4)c4ccccc4)C(C)=C1C3(C)C)[C@]1(OC(C)=O)CO[C@@H]1C[C@@H]2O	0.00919 µM	0.011 µM	0.833 µM	0.0414 µM	> 14.4 µM	0.0676 µM	3.91 µM	0.00722 µM	0.0222 µM	–	> 14.5 µM	4.61 µM	> 25 µM	0.00478 µM	> 7.29 µM	0.00629 µM	–	0.0112 µM	> 6.58 µM	0.0639 µM
COc1ccccc1/C=C/C(=O)c1c(O)cc2occc2c1OC	16.6 µM	28.2 µM	> 100 µM	33.1 µM	> 100 µM	21.9 µM	62.7 µM	47.4 µM	> 100 µM	2.98 µM	26.6 µM	29.6 µM	> 100 µM	26 µM	> 100 µM	> 100 µM	> 100 µM	19.3 µM	43.9 µM	55.6 µM
COc1ccccc1-c1cc(/C=C2\C(=O)Nc3ncc(Br)cc32)cc(Br)c1O	10.5 µM	14.2 µM	> 25 µM	8.52 µM	> 25 µM	9.95 µM	> 25 µM	9.51 µM	> 25 µM	1.21 µM	> 25 µM	14.5 µM	> 25 µM	10.4 µM	> 25 µM	4.43 µM	> 25 µM	22.7 µM	> 25 µM	> 25 µM
O=Cc1ccc(-c2ccc(-c3nc4ccccc4[nH]3)cc2)s1	18.6 µM	15.6 µM	52.4 µM	45.8 µM	> 100 µM	23.5 µM	69.1 µM	20.9 µM	54.1 µM	0.152 µM	28.1 µM	21.1 µM	50.9 µM	34.8 µM	> 100 µM	22.8 µM	69 µM	16.1 µM	41.1 µM	55.5 µM
C[C@@H](N)C1CCC(C(=O)Nc2ccncc2)CC1 (some centres undefined)	> 100 µM	> 88.4 µM	> 100 µM	> 100 µM	> 100 µM	8.7 µM	> 100 µM	> 100 µM	> 100 µM	0.855 µM	> 100 µM	> 100 µM	> 100 µM	81.6 µM	> 100 µM	> 100 µM	> 100 µM	> 100 µM	> 100 µM	> 100 µM
COC(=O)[C@H]1[C@@H](O)[C@@]2(O)c3c(OC)cc(O[C@@H]4O[C@@H]([C@H](O)CO)CO[C@H]4OC)cc3O[C@@]2(c2ccc(OC)cc2)[C@@H]1c1ccccc1	0.0127 µM	0.00434 µM	0.0322 µM	0.00386 µM	0.0237 µM	0.0295 µM	0.108 µM	0.00378 µM	0.035 µM	0.00325 µM	0.0151 µM	–	> 1 µM	0.00585 µM	0.0717 µM	0.00329 µM	0.0333 µM	0.00319 µM	0.0181 µM	0.0471 µM
COc1cc2c(F)nccc2cc1C(=O)N[C@@H](c1ccc(F)c(Cl)c1)[C@@H]1C[C@@H](O)CN1	0.131 µM	0.487 µM	4.81 µM	11.3 µM	25 µM	0.279 µM	14.1 µM	8.43 µM	24.7 µM	0.291 µM	7.83 µM	14 µM	47 µM	0.0573 µM	11.4 µM	1.69 µM	19.3 µM	7.09 µM	25.3 µM	13.2 µM
O=C(c1ccc(OCCN2CCCCC2)cc1)c1c(-c2ccc(O)cc2)sc2cc(O)ccc12	2.99 µM and 7.88 µM	7.8 µM and 12 µM	21.5 µM and 27.9 µM	10.4 µM and 9.02 µM	23.2 µM and 23.6 µM	16.7 µM and 16.3 µM	31.8 µM and 33.3 µM	10 µM and 14 µM	21.7 µM and 31.5 µM	1.43 µM and 5.51 µM	6.72 µM and 29 µM	7.72 µM and 17.7 µM	23.1 µM and 42.6 µM	12.3 µM and 16.5 µM	28.9 µM and 38.5 µM	4.49 µM and 9.32 µM	15.3 µM and 34.3 µM	10.4 µM and 15.4 µM	22.2 µM and 43.8 µM	11 µM and 28.5 µM
NC(=O)C1c2ccccc2C=Cc2ccccc21	> 100 µM	> 100 µM	> 100 µM	> 100 µM	> 100 µM	> 100 µM	> 100 µM	> 100 µM	> 100 µM	51.6 µM	> 100 µM	> 100 µM	> 100 µM	> 100 µM	> 100 µM	> 100 µM	> 100 µM	> 100 µM	> 100 µM	> 100 µM
O=C(CSc1nc2ccccc2nc1-c1ccccc1)Nc1ccc(Cl)cc1	17.5 µM	33.5 µM	> 100 µM	30.5 µM	> 100 µM	35.9 µM	> 100 µM	13.1 µM	40.3 µM	15.4 µM	63.5 µM	24.9 µM	91.5 µM	46.4 µM	> 100 µM	59.4 µM	> 100 µM	5.28 µM	20.4 µM	85.1 µM
O=C(NCCc1ccccc1)C(c1ccccc1)(c1ccccc1)c1ccccc1	2.51 µM	5.99 µM	44.9 µM	0.519 µM	4.21 µM	1.86 µM	9.42 µM	5.78 µM	> 100 µM	> 100 µM	> 100 µM	2.23 µM	6.59 µM	28.8 µM	70 µM	3.19 µM	11.3 µM	7.1 µM	> 100 µM	9.36 µM
COc1cc2c(c(OC)c1O)-c1ccc(OC)c(=O)cc1[C@@H](NC(=O)C(F)(F)F)CC2	–	–	> 100 µM	–	0.628 µM	–	> 100 µM	–	0.151 µM	–	> 100 µM	–	> 100 µM	–	0.695 µM	–	> 100 µM	–	2.4 µM	> 100 µM
COc1cc2c3c(c4ccc(OC)c(OC)c4c2cc1OC)CN1CCC[C@@H]1C3	–	–	2.36 µM	–	0.156 µM	–	3.88 µM	–	16.6 µM	–	0.616 µM	–	0.4 µM	–	0.935 µM	–	0.965 µM	–	39.8 µM	6.39 µM
Cc1nc2ccccn2c1NC(=O)NNC(=S)Nc1ccc(Br)cc1	57.5 µM	42.8 µM	> 100 µM	22.6 µM	59.1 µM	74.1 µM	> 100 µM	38.6 µM	94.8 µM	49.4 µM	> 100 µM	24.5 µM	58 µM	48.9 µM	> 100 µM	35.4 µM	> 100 µM	35.2 µM	> 100 µM	> 100 µM
